Measured values taken from US20110195432A1, “METHODS FOR THE SELECTION OF THERAPEUTIC TREATMENTS FOR CANCER” (priority 2008, published 2011).

Assays:
[1] = tested on: PSA ARE; settings: LNCaP cells; 20 μM sulforaphane, 24 hours; versus vehicle-treated cells
Protocol: To determine whether AR protein depletion from its target genes' androgen response elements (AREs) was responsible for reduced target gene expression, chromatin immunoprecipitation (ChIP) was performed. Cells were cross-linked with formaldehyde and reactions were stopped with glycine. Crosslinked cells were re-suspended in RIPA with SigmaFast protease inhibitors tablets (Sigma, St. Louis, Mo.) and sonicated on ice using a Branson Digital Sonifer model 450 (Branson Ultrasonics Co., Danbury, Conn.). Sonicated cellular lysates were used for Matrix ChIP (Flanagin et al., Nucleic Acids Res 36: e17, 2008) Immunoprecipitations were performed without adding an antibody or with 500 ng of an anti-AR antibody. PCR reactions were amplified using a thermocycler (see supplementary methods). ChIP PCR primer sequences were as follows:
Primers were synthesized by IDT (Coralville, Iowa). ChIP PCR program consisted of: 95° C. for 5 minutes for 1 cycle; 95° C. for 30 seconds, 58° C.(TMPRSS2-ERG) or 60° C. (PSA) for 30 seconds, and 72° C. for 30 seconds for 35-40 cycles; 72° C. final extension for 5 minutes. […] Bands were imaged for densitometry using a Gel Doc XR UV transilluminator and Quantity One software (Bio-Rad, Hercules, Calif.).

[2] = tested on: acetylated alpha-tubulin; experiment: Western blot of acetylated alpha-tubulin, LNCaP cells; format: cell-based
Protocol: The vehicle sample was set to 1.
LNCaP cells were transiently transfected with either a siRNA sequence complementary to the luciferase gene ([…]; SEQ ID NO: 8) or to HDAC6 ([…]; SEQ ID NO: 9) using DharmaFECT 3 transfection reagent for a final concentration of 100 nM (Dharmacon, Lafayette, Colo.). At 48, 72, and 96 hours post-transfection, cells were harvested. Levels of protein expression by Western blot were quantified.

[3] = tested on: AR; experiment: Western blot of AR protein levels, LNCaP cells; format: cell-based
Protocol: (§1) Immunoprecipitation and immunoblotting were performed as described (Qian et al., Clin. Cancer Res. 12:634-42, 2006). The following antibodies used in immunoblotting or immunoprecipitations (indicated dilutions are for immunoblotting): AR (1:1000, #06-680 Upstate, Billerica, Mass.); acetylated lysine (#05-515 Upstate, Billerica, Mass.); acetylated tubulin (1:2000, #T6793 Sigma, St. Louis, Mo.); alpha-tubulin (1:10,000, #T6074 Sigma, St. Louis, Mo.); beta-actin (1:5000, #A5441 Sigma, St. Louis, Mo.); ERG-1/2/3, (1:5000, #sc-354X Santa Cruz, Santa Cruz, Calif.); FLAG epitope (#F7425 Sigma, St. Louis, Mo.); GAPDH (1:5000, #sc-32233 Santa Cruz, Santa Cruz, Calif.); HDAC6 (1:1000, #sc-11420 Santa Cruz); HSP90 (1:1000, #SPA-840 Stressgen, Ann Arbor, Mich.); mouse IgG (#sc-2025 Santa Cruz, Santa Cruz, Calif.). The following secondary antibodies were used: ECL-conjugated anti-mouse IgG, (1:5000, #A6782 Sigma, St. Louis, Mo.); ECL-conjugated anti-rabbit IgG (1:3000, #NA934 Amersham, Piscataway, N.J. or 1:10,000, #sc-2004 Santa Cruz, Santa Cruz, Calif.). X-ray exposures were scanned as uncompressed images and bands were quantified by densitometry with Quantity One software (Bio-Rad, Hercules, Calif.). Intensity values were normalized to those of the endogenous controls. The vehicle sample was set to 1. Enrichment was calculated as: (intensity IP/intensity input)/(intensity IgG/intensity input) or intensity IP/input (FIG. 1B).
LNCaP cells were treated with sulforaphane in a dose-response (5 μM to 20 μM) and time-course (12 and 24 hours) manner to investigate the effect of HDAC6 inhibition on AR protein levels. Western blotting was performed as described in Example 1. […]

[4] = tested on: AR; experiment: Western blot of AR protein levels, VCaP cells; format: cell-based; settings: 24 hours
[5] = tested on: AR; experiment: Real-time PCR of AR gene expression, LNCaP cells; format: cell-based
Source text: (§2) All samples were run in triplicate. The vehicle-treated sample was set to 1.

[6] = tested on: HDAC6; settings: LNCaP cells; sulforaphane versus vehicle
Protocol: as §2
LNCaP cells were transiently transfected with pCDNA3.1 empty vector (Invitrogen, Carlsbad, Calif.) or FLAG-tagged HDAC6 expression vector (Addgene, Cambridge, Mass.) using Lipofectamine LTX and Plus reagents (Invitrogen, Carlsbad, Calif.). Forty-eight hours later, media was replaced for a 16-hour treatment with […] sulforaphane or vehicle. Levels of FLAG, HDAC6, AR, acetylated alpha-tubulin, and actin were measured by Western blot.

[7] = tested on: HSP90; settings: sulforaphane 20 μM
Protocol: (§3) LNCaP and VCaP cells were grown according to ATCC instructions. Sulforaphane (SFN, #S4441 Sigma, St. Louis, Mo.) was re-suspended in DMSO. Vehicle-treated cells received the respective vehicle controls Immunoprecipitations were carried out after treatment with sulforaphane (20 μM) or vehicle for 4 hours followed by a Western blot for HSP90 and AR. Enrichment was quantified for each immunoprecipitation. Inputs were probed with the indicated antibodies by Western blot and were quantified.
as §1

[8] = tested on: HSP90 and AR
Protocol: as §3, §1

[9] = tested on: ERG; settings: VCaP cells; 20 μM sulforaphane, 24 hours; treated in parallel with ChIP
Protocol: as §1, with “The vehicle sample was set to 1.” left out

[10] = tested on: PSA; experiment: Real-time PCR of AR target gene expression, LNCaP cells; format: cell-based; settings: increasing doses, vehicle set to 1
Source text: as §2

[11] = tested on: AR; experiment: Western blot of AR protein levels, LNCaP cells; format: cell-based; remark: listed apart in the source
[12] = FLAG-HDAC6 transfected LNCaP cells, sulforaphane-treated, versus empty-vector, sulforaphane-treated cells
[13] = empty-vector transfected LNCaP cells, 16-hour treatment with 15 nM sulforaphane versus vehicle
[14] = 4 hour treatment, vehicle versus sulforaphane

With C[S+]([O-])CCCCN=C=S (centres unmarked) [sulforaphane, 1-Isothiocyanato-4-methylsulfinylbutane] the “enrichment of AR at the PSA ARE” value [1] was “reduced enrichment”, the “alpha-tubulin acetylation in HDAC6-over-expressing cells” value [2, 12] was “blunted” and the acetylated tubulin [2, 13] was “increased”. For the same compound, the “levels of acetylated tubulin in input whole cell lysate” value ([2]; sulforaphane 20 μM, 4 hours, versus vehicle) was “increased levels of acetylated alpha-tubulin”, the “AR steady state level with simultaneous MG132 treatment” value ([3]; 24 hours, sulforaphane 20 μM or 300 nM TSA with 10 μM MG132) was “restored the AR steady state level close to that seen in the vehicle-treated control” and the “AR protein in the absence of MG132” value ([3]; 24 hours, sulforaphane 20 μM or 300 nM TSA, versus vehicle-treated cells) was “dramatic reductions”. The “AR protein levels at 24 hours” value ([3]; sulforaphane 15 μM and 20 μM, TSA) was “persisted”, the “levels of AR protein in whole cell lysates” value ([4]; 20 μM sulforaphane, treated in parallel with ChIP) was “near absent levels” and the AR protein levels ([4]; all sulforaphane dose levels) was “declined”. The “AR transcript levels at highest dose” value ([5]; 20 μM) was “declined”, the AR transcripts ([5]; increasing doses of sulforaphane, or TSA, vehicle set to 1) was “not consistently suppressed” and the HDAC6 transcript levels [6] was “reduce HDAC6 transcript levels”. The “enrichment of acetylated lysines on the HSP90 protein” value ([7]; LNCaP cells, four hours, versus vehicle-treated cells) was “increased enrichment of acetylated lysines on the HSP90 protein”, the “levels of HSP90 in input whole cell lysate” value ([7]; 4 hours, versus vehicle) was “similar” and the “interaction between HSP90 and AR” value ([8]; 4 hour sulforaphane treatment, as opposed to vehicle) was “disrupted”. For the same compound, the “Levels of acetylation of the AR” value [8, 14] was “similar”, the “levels of ERG protein in whole cell lysates” value [9] was “near absent levels” and the “AR target gene expression (PSA)” value [10] was “dose-dependent reduction”. The “levels of AR in input whole cell lysate” value [11, 14] was “similar”, the “AR protein depletion in HDAC6-over-expressing cells” value [11, 12] was “attenuated” and the AR protein levels ([11]; LNCaP cells, 12 hours, highest doses tested (10-20 μM)) was “decreased”. For the same compound, the “onset of AR protein decline” value ([11]; after sulforaphane treatment) was 6 to 12 h and the AR protein [11, 13] was “decreased”.
